Source: PubChem BioAssay (NCI)
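Cells were grown in 96-well plates and exposed to each compound for 48 hours at five concentrations; endpoints were interpolated linearly between bracketing concentrations, or set to the highest concentration if not reached. Abbreviation: GI50, concentration required for 50% inhibition of growth. At the TGI there is no net growth.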

Experiments:
Assay in all cases: NCI tumour cell line growth inhibition, 48 h
T-47D breast = test system: T-47D breast
SK-MEL-28 melanoma = test system: SK-MEL-28 melanoma
HCC-2998 colon = test system: HCC-2998 colon
RPMI-8226 leukemia = test system: RPMI-8226 leukemia
SN12C renal = test system: SN12C renal
A498 renal = test system: A498 renal
U251 CNS = test system: U251 CNS
SW-620 colon = test system: SW-620 colon
M14 melanoma = test system: M14 melanoma
SF-268 CNS = test system: SF-268 CNS
TK-10 renal = test system: TK-10 renal
MDA-MB-231 breast = test system: MDA-MB-231 breast
NCI-H23 lung = test system: NCI-H23 lung
SF-295 CNS = test system: SF-295 CNS
SK-OV-3 ovarian = test system: SK-OV-3 ovarian
NCI-H460 lung = test system: NCI-H460 lung
OVCAR-3 ovarian = test system: OVCAR-3 ovarian
MALME-3M melanoma = test system: MALME-3M melanoma
COLO 205 colon = test system: COLO 205 colon
MCF7 breast = test system: MCF7 breast
MOLT-4 leukemia = test system: MOLT-4 leukemia
PC-3 prostate = test system: PC-3 prostate
UACC-62 melanoma = test system: UACC-62 melanoma
A549 NSCLC = test system: A549 NSCLC
SK-MEL-5 melanoma = test system: SK-MEL-5 melanoma
SF-539 CNS = test system: SF-539 CNS
LOX IMVI melanoma = test system: LOX IMVI melanoma
HOP-62 NSCLC = test system: HOP-62 NSCLC
HS 578T breast = test system: HS 578T breast
K-562 leukemia = test system: K-562 leukemia
HL-60(TB) leukemia = test system: HL-60(TB) leukemia
NCI-H522 lung = test system: NCI-H522 lung
HCT-116 colon = test system: HCT-116 colon
ACHN renal = test system: ACHN renal
KM12 colon = test system: KM12 colon
HT29 colon = test system: HT29 colon
UACC-257 melanoma = test system: UACC-257 melanoma
SNB-19 CNS = test system: SNB-19 CNS
OVCAR-5 ovarian = test system: OVCAR-5 ovarian
CAKI-1 renal = test system: CAKI-1 renal
EKVX NSCLC = test system: EKVX NSCLC
SR leukemia = test system: SR leukemia
CCRF-CEM leukemia = test system: CCRF-CEM leukemia
SNB-75 CNS = test system: SNB-75 CNS
NCI/ADR-RES ovarian = test system: NCI/ADR-RES ovarian
786-0 renal = test system: 786-0 renal
SK-MEL-2 melanoma = test system: SK-MEL-2 melanoma
NCI-H226 lung = test system: NCI-H226 lung
HOP-92 NSCLC = test system: HOP-92 NSCLC
DU-145 prostate = test system: DU-145 prostate
MDA-MB-468 breast = test system: MDA-MB-468 breast
HCT-15 colon = test system: HCT-15 colon
IGROV1 ovarian = test system: IGROV1 ovarian
RXF 393 renal = test system: RXF 393 renal
OVCAR-8 ovarian = test system: OVCAR-8 ovarian
UO-31 renal = test system: UO-31 renal
MDA-MB-435 = test system: MDA-MB-435
OVCAR-4 ovarian = test system: OVCAR-4 ovarian
BT-549 breast = test system: BT-549 breast

## FC(F)(F)c1cc2c(Cl)ncnc2n1CCC1CCOCC1
T-47D breast
  GI50: 20.2 µM
  TGI: 59.6 µM
SK-MEL-28 melanoma
  GI50: 2.6 µM
  TGI: 6 µM
HCC-2998 colon
  GI50: 1.63 µM
  TGI: 3.03 µM
RPMI-8226 leukemia
  GI50: 14.6 µM
  TGI: 41.4 µM
SN12C renal
  GI50: 6.67 µM
  TGI: 19.8 µM
A498 renal
  GI50: 16.2 µM
  TGI: 29.9 µM
U251 CNS
  GI50: 2.07 µM
  TGI: 5.58 µM
SW-620 colon
  GI50: 11.9 µM
  TGI: 28.5 µM
M14 melanoma
  GI50: 3.76 µM
  TGI: 16.2 µM
SF-268 CNS
  GI50: 2.45 µM
  TGI: 7.28 µM
TK-10 renal
  GI50: 17.4 µM
  TGI: 36.7 µM
MDA-MB-231 breast
  GI50: 3.9 µM
  TGI: 14 µM
NCI-H23 lung
  GI50: 2.59 µM
  TGI: 10 µM
SF-295 CNS
  GI50: 14 µM
  TGI: 27.9 µM
SK-OV-3 ovarian
  GI50: 17.3 µM
  TGI: 33.3 µM
NCI-H460 lung
  GI50: 2.42 µM
  TGI: 5.66 µM
OVCAR-3 ovarian
  GI50: 12.2 µM
  TGI: 27.4 µM
MALME-3M melanoma
  GI50: 15.2 µM
  TGI: 29.2 µM
COLO 205 colon
  GI50: 16.4 µM
  TGI: 37.2 µM
MCF7 breast
  GI50: 11.5 µM
  TGI: 36.4 µM
MOLT-4 leukemia
  GI50: 2.35 µM
  TGI: 5.45 µM
PC-3 prostate
  GI50: 2.97 µM
  TGI: 11.3 µM
UACC-62 melanoma
  GI50: 4.23 µM
  TGI: 15.7 µM
A549 NSCLC
  GI50: 22 µM
  TGI: 56.9 µM
SK-MEL-5 melanoma
  GI50: 2.79 µM
  TGI: 9.23 µM
SF-539 CNS
  GI50: 13.6 µM
  TGI: 27.7 µM
LOX IMVI melanoma
  GI50: 1.63 µM
  TGI: 2.99 µM
HOP-62 NSCLC
  GI50: 17 µM
  TGI: 35.1 µM
HS 578T breast
  GI50: 12.1 µM
  TGI: 45.5 µM
K-562 leukemia
  GI50: 2.84 µM
  TGI: 8.66 µM
HL-60(TB) leukemia
  GI50: 2.21 µM
  TGI: 5.07 µM
NCI-H522 lung
  GI50: 1.68 µM
  TGI: 3.68 µM
HCT-116 colon
  GI50: 2.36 µM
  TGI: 6.48 µM
ACHN renal
  GI50: 11.1 µM
  TGI: 26 µM
KM12 colon
  GI50: 16.3 µM
  TGI: 33.9 µM
HT29 colon
  GI50: 13.9 µM
  TGI: 44.2 µM
UACC-257 melanoma
  GI50: 3.56 µM
  TGI: 15.7 µM
SNB-19 CNS
  GI50: 5.21 µM
  TGI: 18.1 µM
OVCAR-5 ovarian
  GI50: 24.1 µM
  TGI: 81.9 µM
CAKI-1 renal
  GI50: 14.6 µM
  TGI: 30.2 µM
EKVX NSCLC
  GI50: 12.6 µM
  TGI: 28.5 µM
SR leukemia
  GI50: 2.05 µM
  TGI: 5.32 µM
CCRF-CEM leukemia
  GI50: 1.41 µM
  TGI: 4.56 µM
SNB-75 CNS
  GI50: 3.09 µM
  TGI: 15.1 µM
NCI/ADR-RES ovarian
  GI50: 17 µM
  TGI: 35.1 µM
786-0 renal
  GI50: 16.1 µM
  TGI: 32.4 µM
SK-MEL-2 melanoma
  GI50: 13.2 µM
  TGI: 28.2 µM
NCI-H226 lung
  GI50: 13.9 µM
  TGI: 28.5 µM
HOP-92 NSCLC
  GI50: 13.9 µM
  TGI: 32.3 µM
DU-145 prostate
  GI50: 4.35 µM
  TGI: 15.1 µM
MDA-MB-468 breast
  GI50: 1.66 µM
  TGI: 3.44 µM
HCT-15 colon
  GI50: 2.93 µM
  TGI: 11 µM
IGROV1 ovarian
  GI50: 1.78 µM
  TGI: 3.49 µM
RXF 393 renal
  GI50: 8.75 µM
  TGI: 22.1 µM
OVCAR-8 ovarian
  GI50: 2.44 µM
  TGI: 7.33 µM
UO-31 renal
  GI50: 1.79 µM
  TGI: 3.79 µM
MDA-MB-435
  GI50: 5.01 µM
  TGI: 18.3 µM
OVCAR-4 ovarian
  GI50: 18.5 µM
  TGI: 50.1 µM
BT-549 breast
  GI50: 10.2 µM
  TGI: 22.6 µM
